Test results taken from PMC7318034, “Safety, Pharmacokinetics, and Drug-Drug Interaction Potential of Intravenous Durlobactam, a β-Lactamase Inhibitor, in Healthy Subjects” (Antimicrobial Agents and Chemotherapy, 2020).

Test: Safety and tolerability (adverse events, laboratory values, vital signs, ECG) in healthy subjects
Assay type: in vivo, human
Method: A routine physical examination, determination of vital signs (supine blood pressure, heart rate, respiratory rate, temperature), a 12-lead electrocardiogram (ECG), and clinical laboratory testing (serum chemistry, hematology, urinalysis) were performed at screening, at intervals during the study, and at the 14-day follow-up.
The intent-to-treat (ITT) population included all randomized subjects. The safety population was all randomized subjects who received any study drug.

[1] = all subjects receiving the treatment

CC1=C[C@@H]2CN(C(=O)N2OS(=O)(=O)O)[C@@H]1C(N)=O [DUR, Durlobactam]
drug-related AE: catheter site phlebitis (DUR group, all subjects): 5.3%
drug-related AE: headache (DUR group, all subjects): 10.6%
treatment-emergent AE: catheter site phlebitis (DUR group, all subjects): 8.5%
treatment-emergent AE: headache (DUR group, all subjects): 13.8%
Drug-related AE: Abdominal pain [1]: 0 No. (%) of subjects
Drug-related AE: Dizziness [1]: 4 (4.3) No. (%) of subjects
Drug-related AE: Dysgeusia [1]: 2 (2.1) No. (%) of subjects
Drug-related AE: Nasal congestion [1]: 2 (2.1) No. (%) of subjects
Drug-related AE: Nausea [1]: 2 (2.1) No. (%) of subjects
Drug-related AE: Pain in extremity [1]: 1 (1.1) No. (%) of subjects
Drug-related AE: Phlebitis [1]: 2 (2.1) No. (%) of subjects
Drug-related AE: Polydipsia [1]: 0 No. (%) of subjects
Drug-related AE: Pruritus [1]: 2 (2.1) No. (%) of subjects
Drug-related AE: Somnolence [1]: 1 (1.1) No. (%) of subjects
Drug-related AE: Upper respiratory infection [1]: 1 (1.1) No. (%) of subjects
Drug-related AE: Vulvovaginal candidiasis [1]: 2 (2.1) No. (%) of subjects
drug-related AE: catheter site phlebitis [1]: 5 (5.3) No. (%) of subjects
drug-related AE: headache [1]: 10 (10.6) No. (%) of subjects
overall safety and tolerability (alone or with SUL and/or IMI-CIL): generally safe and well tolerated
changes in clinical laboratory values, vital signs, or ECG findings (any subject): No clinically significant changes
